Experimental data: patent publication US11052063B2, “Methods of reducing RLP-C” (Amarin Pharmaceuticals Ireland Limited, priority 2014, dated 2021)

Tested on: Serum RLP-C
Assay: 12-week placebo-controlled study (MARINE), serum RLP-C by immunoseparation assay, patients with fasting TG ≥500 mg/dL
Format: in vivo, human
Conditions: for Median Change from Baseline in RLP-C vs. Placebo: Hodges-Lehmann estimate; for Median Change from Baseline in RLP-C vs. Placebo / RLP-C Concentration End of Treatment: week 12; for RLP-C Concentration Change: median change from baseline to week 12; for RLP-C Concentration Baseline / RLP-C Concentration End of Treatment: median; for RLP-C Concentration Baseline: before treatment
Method: A multi-center, placebo-controlled randomized, double-blind, 12-week study with an open-label extension was performed to evaluate the efficacy and safety of AMR101 in patients with fasting triglyceride levels≥500 mg/dL. The primary objective of the study was to determine the efficacy of >96%, by weight of all fatty acids present, ethyl-EPA (“AMR101”) 2 g daily and 4 g daily, compared to placebo, in lowering fasting TG levels in patients with fasting TG levels≥500 mg/dL and ≤1500 mg/dL (≥5.65 mmol/L and ≤16.94 mmol/L). The population for this study was men and women (women of childbearing potential needed to be on contraception or practice abstinence) >18 years of age with a body mass index≤45 kg/m^2 who were not on lipid-altering therapy or were not currently on lipid-altering therapy. Patients currently on statin therapy (with or without ezetimibe) were evaluated by the investigator as to whether this therapy could be safely discontinued at screening, or if it should have been continued. If statin therapy (with or without ezetimibe) was to be continued, dose(s) must have been stable for ≥4 weeks prior to randomization. Patients taking non-statin, lipid-altering medications (niacin>200 mg/day, fibrates, fish oil, other products containing omega-3 fatty acids, or other herbal products or dietary supplements with potential lipid-altering effects), either alone or in combination with statin therapy (with or without ezetimibe), must have been able to safely discontinue non-statin, lipid-altering therapy at screening. Approximately 240 patients were randomized at approximately 50 centers in North America, South America, Central America, Europe, India, and South Africa. The study was a 58- to 60-week, Phase 3, multi-center study consisting of 3 study periods: (1) a 6- to 8-week screening period that included a diet and lifestyle stabilization and washout period and a TG qualifying period; (2) a 12-week, double-blind, randomized, placebo-controlled treatment period; and (3) a 40-week, open-label, extension period. After confirmation of qualifying fasting TG values, eligible patients entered a 12-week, randomized, double-blind treatment period. At Visit 4 (Week 0), patients were randomly assigned to one of the following treatment groups: • AMR101 2 g daily, • AMR101 4 g daily, or • Placebo. Eligible patients were randomly assigned at Visit 4 (Week 0) to orally receive AMR101 2 g daily, AMR101 4 g daily, or placebo for the 12-week double-blind treatment period. AMR101 was provided in 1 g liquid-filled, oblong, gelatin capsules. The matching placebo capsule was filled with light liquid paraffin and contained 0 g of AMR101. During the double-blind treatment period, patients took 2 capsules (AMR101 or matching placebo) in the morning and 2 in the evening for a total of 4 capsules per day. Patients in the AMR101 2 g/day treatment group received 1 AMR101 1 g capsule and 1 matching placebo capsule in the morning and in the evening. Patients in the AMR101 4 g/day treatment group received 2 AMR101 1 g capsules in the morning and evening. The primary efficacy variable for the double-blind treatment period was percent change in TG from baseline to Week 12 endpoint. […]

[1] = 2 g/day, Baseline TG >750 mg/dl
[2] = 2 g/day, Baseline TG ≤750 mg/dl
[3] = 4 g/day, Baseline TG >750 mg/dl
[4] = 4 g/day, Baseline TG ≤750 mg/dl

SMILES: CC/C=C\C/C=C\C/C=C\C/C=C\C/C=C\CCCC(=O)OCC [AMR101, ethyl-EPA]
- RLP-C compared to placebo (2 g/day treatment group, 12 weeks): reduced RLP-C compared to placebo
- Median Change from Baseline in RLP-C vs. Placebo [1]: −25.4%
- RLP-C Concentration Change [1]: −10.7%
- RLP-C Concentration Baseline [1]: 66.0 mg/dL
- RLP-C Concentration End of Treatment [1]: 65.0 mg/dL
- Median Change from Baseline in RLP-C vs. Placebo [2]: −7.3%
- RLP-C Concentration Change [2]: 18.2%
- RLP-C Concentration Baseline [2]: 27.5 mg/dL
- RLP-C Concentration End of Treatment [2]: 32.5 mg/dL
- Median Change from Baseline in RLP-C vs. Placebo (2 g/day, ITT): −14.9%
- RLP-C Concentration Change (2 g/day, ITT): 5.8%
- RLP-C Concentration Baseline (2 g/day, ITT): 43.0 mg/dL
- RLP-C Concentration End of Treatment (2 g/day, ITT): 44.5 mg/dL
- Median Change from Baseline in RLP-C vs. Placebo (2 g/day, No Statin Use): −8.5%
- RLP-C Concentration Change (2 g/day, No Statin Use): 3.0%
- RLP-C Concentration Baseline (2 g/day, No Statin Use): 45.0 mg/dL
- RLP-C Concentration End of Treatment (2 g/day, No Statin Use): 44.5 mg/dL
- Median Change from Baseline in RLP-C vs. Placebo (2 g/day, With Statin Use): −41.6%
- RLP-C Concentration Change (2 g/day, With Statin Use): 29.2%
- RLP-C Concentration Baseline (2 g/day, With Statin Use): 31.5 mg/dL
- RLP-C Concentration End of Treatment (2 g/day, With Statin Use): 46.5 mg/dL
- median placebo-adjusted reductions in RLP-C (4 g/day treatment group, 12 weeks, p=0.0041, stated as reduction): 29.8%
- reductions in RLP-C compared to baseline (4 g/day treatment group, 12 weeks, stated as reduction): 16.1%
- Median Change from Baseline in RLP-C vs. Placebo [3]: −37.5%
- RLP-C Concentration Change [3]: −25.4%
- RLP-C Concentration Baseline [3]: 89.5 mg/dL
- RLP-C Concentration End of Treatment [3]: 68.5 mg/dL
- Median Change from Baseline in RLP-C vs. Placebo [4]: −26.1%
- RLP-C Concentration Change [4]: −8.8%
- RLP-C Concentration Baseline [4]: 34.0 mg/dL
- RLP-C Concentration End of Treatment [4]: 29.0 mg/dL
- Median Change from Baseline in RLP-C vs. Placebo (4 g/day, ITT): −29.8%
- RLP-C Concentration Change (4 g/day, ITT): −16.1%
- RLP-C Concentration Baseline (4 g/day, ITT): 45.0 mg/dL
- RLP-C Concentration End of Treatment (4 g/day, ITT): 38.0 mg/dL
- Median Change from Baseline in RLP-C vs. Placebo (4 g/day, No Statin Use): −21.4%
- RLP-C Concentration Change (4 g/day, No Statin Use): −16.6%
- RLP-C Concentration Baseline (4 g/day, No Statin Use): 45.0 mg/dL
- RLP-C Concentration End of Treatment (4 g/day, No Statin Use): 39.5 mg/dL
- Median Change from Baseline in RLP-C vs. Placebo (4 g/day, With Statin Use): −56.8%
- RLP-C Concentration Change (4 g/day, With Statin Use): −16.1%
- RLP-C Concentration Baseline (4 g/day, With Statin Use): 37.0 mg/dL
- RLP-C Concentration End of Treatment (4 g/day, With Statin Use): 33.0 mg/dL
